Measurements published in article PMC8122671, “New Succinimides with Potent Anticancer Activity: Synthesis, Activation of Stress Signaling Pathways and Characterization of Apoptosis in Leukemia and Cervical Cancer Cells” (International Journal of Molecular Sciences, 2021).
“Also recorded” adds a separate entry of the source.

System: caspase 3/7 in K562 cells
Experiment: Caspase-3/7 activity assay (Apo-ONE) in K562 cells
Assay type: cell-based, human
Conditions: K562, 18 h, test compound at 5xIC50, staurosporine 1 μM; vs 1% DMSO
Description: After incubation for 18 h, K562 cells were lysed and the activity of caspase 3/7 was measured using a profluorescent peptide substrate.
First, 20 × 10^3 K562 cells were seeded on each well of a 96-well plate in RPMI 1640 medium supplemented with 10% fetal calf serum and antibiotics. Cells were grown for 24 h at 37 °C and 5% CO2. Test dicarboximides were dissolved in DMSO and added to cell culture to the final concentration of 5 × IC50. […] Cells were exposed to test compounds for 18 h at 37 °C and 5% CO2. Subsequently, the activity of caspase 3 and 7 was measured by Apo-ONE® Homogeneous Caspase-3/7 Assay (Promega, Madison, WI, USA) according to the manufacturer’s instructions. Briefly, the cells were lysed and incubated for 1.5 h with a profluorescent substrate for caspase 3 and 7. Next, the fluorescence was read at an excitation wavelength of 485 nm and emission of 520 nm with a FLUOStar Omega microplate reader (BMG-Labtech, Offenburg, Germany).

## CCC12C(=O)C(CC)(C(c3ccccc3)=C1c1ccccc1)C1C(=O)N(CC(O)CNC(C)(C)C)C(=O)C12 (stereo not shown) [2c, 4-[3-(tert-butylamino)-2-hydroxypropyl]-1,7-diethyl-8,9-diphenyl-4-azatricyclo [5.2.1.0^2,6]dec-8-ene-3,5,10-trione]
  activity of caspase 3/7: over eight-fold increase in caspase activity; also recorded: activated caspase 3 and 7

## CCN(CC)CC(O)CN1C(=O)C2C(C1=O)C1(CC)C(=O)C2(CC)C(c2ccccc2)=C1c1ccccc1 (stereo not shown) [2d, 4-[3-(diethylamino)-2-hydroxypropyl]-1,7-diethyl-8,9-diphenyl-4-azatricyclo [5.2.1.0^2,6]dec-8-ene-3,5,10-trione]
  activity of caspase 3/7: over eight-fold increase in caspase activity; also recorded: activated caspase 3 and 7

## CC(C)(C)NCC(O)CN1C(=O)C2C(C1=O)C1(c3ccccc3)CC2(c2ccccc2)C(c2ccccc2)=C1c1ccccc1 (stereo not shown) [3c, 4-[3-(tert-butylamino)-2-hydroxypropyl]-1,7,8,9-tetraphenyl-4-azatricyclo[5.2.1.0^2,6]dec-8-ene-3,5-dione]
  activity of caspase 3/7: activated caspase 3/7 to a lesser extent; also recorded: activated caspase 3 and 7

## CCN(CC)CC(O)CN1C(=O)C2C(C1=O)C1(c3ccccc3)CC2(c2ccccc2)C(c2ccccc2)=C1c1ccccc1 (stereo not shown) [3d, 4-[3-(diethylamino)-2-hydroxypropyl]-1,7,8,9-tetraphenyl-4-azatricyclo[5.2.1.0^2,6]dec-8-ene-3,5-dione]
  activity of caspase 3/7: activated caspase 3/7 to a lesser extent; also recorded: activated caspase 3 and 7
